# Data as given in patent publication US9440914B2, “Method for treating glioblastomas and other tumors” (THE FEINSTEIN INSTITUTE FOR MEDICAL RESEARCH, priority 2013, dated 2016).
# pIC50: −log10 of the molar value.
# Tests used:
# GL261 cells [1] = assay: serum-stimulated GL261 invasion (transwell, BME); type: cell-based, murine; settings: 10 μM; 10% FBS in bottom well, 48 h
# Protocol: FIG. 1A-1C. Semapimod inhibits microglia-stimulated glioblastoma invasion in vitro. (A) Semapimod inhibits microglia-stimulated glioblastoma cell invasion. GL261 cells were embedded in basement membrane extract (BME) with or without microglia in the presence of the indicated concentrations of semapimod, layered in the transwell and incubated for 48 h. The number of invading GL261 cells was determined. Data shown represent the average+/−SEM of 3 independent experiments, performed in duplicate. […] GL261 cells embedded in BME in the presence of the indicated concentration of semapimod, were layered in the transwell and incubated for 48 h. Serum (10% FBS) was added to the bottom well. The number of invading GL261 cells was determined. Data shown represent the average+/−SEM of 3 independent experiments. (C) Semapimod inhibits glioblastoma cell-stimulated microglia invasion. Glioblastoma cells were plated in the bottom well and microglia were embedded in BME in the presence or absence of 200 nM semapimod, layered in the transwell and incubated for 48 h. […]
# Invasion Assays: Glioblastoma and microglial cells were labelled with cell tracker green CMFDA and with cell tracker red CMTPX, respectively, and then embedded in 50 μL of 10 mg/mL basement membrane extract (BME) (Trevigen). […] All invaded cells were counted.
# [2] = tested on: GL261 murine glioblastoma cells co-cultured with microglia; assay: 3-dimensional microglia-glioblastoma co-culture transwell invasion assay (microglia-stimulated GL261 invasion); type: cell-based; settings: 3:1 glioblastoma cells to microglia, BME, no serum, 48 h; read-out: IC50 for interference with microglia-stimulated GL261 invasion
# Protocol: Invasion Assays: Glioblastoma and microglial cells were labelled with cell tracker green CMFDA and with cell tracker red CMTPX, respectively, and then embedded in 50 μL of 10 mg/mL basement membrane extract (BME) (Trevigen). The mixture was then placed in a transwell insert (previously coated with 1 μg/mL fibronectin on the bottom side of the 8 μm filter to maintain adhesion of the cells that invaded through the filter) and allowed to polymerize for 30 min at 37° C. Subsequently, serum free medium was added to both wells. To maintain constant cell numbers, cells were plated at a density per invasion chamber of 15×10^4 GL261 cells and 5×10^4 microglia cells in MSFM. Semapimod or its diluent was added at varying concentrations into the BME and in the media above and below the transwell. Invasion chambers were incubated for 48 h and subsequently fixed in 3.7% formaldehyde in phosphate-buffered saline (PBS). The gel in the transwell inserts was carefully removed. Invaded glioblastoma cells were imaged with a Zeiss Axiovision inverted microscope and a 10× objective. All invaded cells were counted.
# To determine the effect of microglia on the invasive properties of glioblastoma cells, a novel 3-dimensional microglia-glioblastoma co-culture assay was designed that provides a better approximation of the in vivo setting than a 2-dimensional configuration. […]
# SK-NEP1 human ES cells = assay: metastatic Ewing's Sarcoma mouse model (SK-NEP1 implanted into kidney); type: in vivo, athymic mice
# Protocol: FIG. 8A-8B. CNI-1493 decreases primary tumor size and metastatic burden in a metastatic Ewing's Sarcoma mouse model. 10^6 SK-ENP1 cells were implanted into the kidneys of nude mice and intraperitoneal treatment with CNI-1493 (5 mg/kg/day) or vehicle was initiated one week later. After six weeks of treatment, mice were sacrificed and assessed for primary and metastatic tumor burden. […] Metastatic tumor burden was evaluated with hematoxylin and eosin stained tissue sections by microscopy and calculating surface area per tissue section per mouse using ImageJ software (B).
# In vivo, human ES cells (SK-NEP1) were surgically implanted into the left kidney of athymic mice. Mice were treated for 7 weeks with CNI-1493 or vehicle. Lung parenchyma was assessed for metastases utilizing both H&E and immunohistochemistry for the ES-specific CD99 and endothelial-specific CD31 markers. In vitro, primary macrophages isolated from human blood were polarized to M1 or M2 phenotypes by exposure to GM-CSF or M-CSF and activated with IFN-γ and LPS or IL-4. Cells were co-cultured with polarized macrophages and underwent proliferation and invasion assays in the presence or absence of CNI-1493.
# GL261 cells [3] = assay: colony formation assay of GL261 with or without microglia and irradiation; type: cell-based, murine; settings: 200 nM; for effect on microglia-stimulated GL261 survival (colony formation): co-culture with microglia
# Protocol: Colony Formation Assay: G1261 cells and microglia were labeled as described for the invasion assay and were co-cultured in serum overnight and then changed to serum free medium for 48 h in the absence of serum at a 1:1 ratio at a density of 5×10^5 per well of a 6-well plate in the presence or absence of 200 nM semapimod. Subsequently, cells were subjected to 3 Gy of X-ray irradiation using a Radionics 160 kV irradiator. Two days after irradiation, cells were trypsinized, counted using a fluorescence microscope and 500 GL261 cells were plated in 6 cm dishes containing 10% FBS MSFM medium. Colony formation was allowed to proceed for 12 days, with medium changes every other day. Subsequently, the cells were fixed in 3.7% formaldehyde in PBS and stained with 0.2% (w/v) sulpharhodamine B (SRB) dye in 1% acetic acid for 20 min. The dishes were washed with 1% glacial acetic acid and allowed to dry. Plates were scanned and processed using Photoshop 5 (Adobe). Images were changed to grayscale and background threshold intensity was set. Colonies were counted automatically by Image J (rsbweb.nih.gov/ij/) and the numbers graphed.
# Semapimod inhibits microglia-stimulated glioblastoma cell survival: A critical problem of malignant glioblastoma is its strong resistance to ionizing radiation (IR) and other therapeutic modalities (21). The role of microglia in glioblastoma cell survival has not been studied thus far. It was therefore examined whether microglia can enhance the survival of GL216 cells after IR and whether semapimod interferes with this function. GL261 cells were plated either in the presence or absence of microglia with or without semapimod (200 nM) for 2 days, followed by radiation treatment (3 Gy). Two days later, glioblastoma cell viability was assayed using a standard colony formation assay. […] In the presence of radiation, the stimulatory effect of microglia on glioblastoma cell survival is more marked (50%) and this effect is also abolished by semapimod (FIG. 2B).
compound,measurement,setting,value
C/C(=N\NC(=N)N)c1cc(NC(=O)CCCCCCCCC(=O)Nc2cc(/C(C)=N/NC(=N)N)cc(/C(C)=N/NC(=N)N)c2)cc(/C(C)=N/NC(=N)N)c1 [semapimod],effect on serum-stimulated GL261 invasion,GL261 cells [1],does not affect
same,pIC50,[2],> 7.30
same,primary tumor size (effect in words),SK-NEP1 human ES cells; intraperitoneal 5 mg/kg/day,significantly reduce
same,incidence of metastatic disease,"SK-NEP1 human ES cells; intraperitoneal 5 mg/kg/day, p=0.055",21%
same,lung metastases by immunohistochemistry,"SK-NEP1 human ES cells; lung tissue, CD99/CD31",micrometastases confined to the vasculature
same,overall metastatic tumor burden,"SK-NEP1 human ES cells; treated 7 weeks, versus vehicle, p<0.05",significantly decreased
same,primary tumor size,"SK-NEP1 human ES cells; treated 7 weeks, control 7.0±5.2 g, p=0.54, not affected",5.7 ± 3.3 g
same,effect on microglia-stimulated GL261 survival (colony formation),GL261 cells [3]; 3 Gy radiation,abolished
same,effect on microglia-stimulated GL261 survival (colony formation),GL261 cells [3]; absence of radiation,abolishes
same,effect on survival potential of glioblastoma cell monocultures,GL261 cells [3]; no microglia,does not affect
